Consider three compounds from publication PMC6812009, “Covalent Aurora A regulation by the metabolic integrator coenzyme A” (Redox Biology, 2019).

Like-named read-outs stand apart in the source and are kept apart here.

The target in one experiment is CAMK1 (Homo sapiens, UniProt Q14012). Put plainly: Kinase profiling screen (radioactive filter-binding assay). The format is biochemical. Particulars: 100 μM compound, 50 μM ATP; read-out: Kinase activity, % of activity in the absence of inhibitor. The method, then: (§1) Profiling of 117 protein kinases with CoA, dpCoA and ADP was carried out at the International Centre for Protein Kinase Profiling at the University of Dundee. Each compound was tested in vitro, in duplicate, at 100 μM final concentration using recombinant kinases, model substrates and optimal concentrations of ATP. Bacterially expressed full-length His-Aurora A was used to determine the IC50 value for CoA (in the presence or absence of DTT), dpCoA, ADP and desulfo-CoA. The assay was performed in the presence of 5 μM competing ATP. To examine whether the inhibitory effect of CoA on Aurora A is modulated by TPX2, IC50 values for CoA were also generated in the presence and absence of 1 μg TPX2 (residues 1–43) fragment.

Another experiment addresses SmMLCK (Homo sapiens, UniProt Q15746). The description is as above. The format is biochemical. Particulars: 100 μM compound, 20 μM ATP; read-out: Kinase activity, % of activity in the absence of inhibitor. The method, then: as §1
Another experiment concerns the target T1, DYRK2 (Homo sapiens, UniProt Q92630).
T1 sequence (Q92630 1-601): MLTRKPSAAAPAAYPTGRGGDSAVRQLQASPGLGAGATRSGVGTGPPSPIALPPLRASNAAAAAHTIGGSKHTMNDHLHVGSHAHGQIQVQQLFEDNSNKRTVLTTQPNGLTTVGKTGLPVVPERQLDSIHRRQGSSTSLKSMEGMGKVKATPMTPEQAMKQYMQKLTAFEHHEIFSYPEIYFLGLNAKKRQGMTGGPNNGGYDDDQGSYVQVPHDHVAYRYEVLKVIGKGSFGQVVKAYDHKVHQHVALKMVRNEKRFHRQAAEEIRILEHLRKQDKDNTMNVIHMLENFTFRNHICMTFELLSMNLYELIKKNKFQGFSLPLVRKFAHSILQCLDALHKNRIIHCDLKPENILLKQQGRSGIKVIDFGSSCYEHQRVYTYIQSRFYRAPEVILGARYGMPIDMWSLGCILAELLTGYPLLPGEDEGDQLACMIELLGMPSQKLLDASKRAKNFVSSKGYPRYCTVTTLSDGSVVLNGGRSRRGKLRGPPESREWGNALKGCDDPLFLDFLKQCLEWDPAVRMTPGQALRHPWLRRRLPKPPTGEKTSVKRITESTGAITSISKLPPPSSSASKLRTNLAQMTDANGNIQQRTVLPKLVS
Described as above. The format is biochemical. To be noted: 100 μM compound, 50 μM ATP; read-out: Kinase activity, % of activity in the absence of inhibitor. The method, then: as §1

A further experiment has as its target T2, Aurora A (active) (Homo sapiens, UniProt O14965).
T2 construct: Bacterially expressed full-length His-Aurora A was used to determine the IC50 value for CoA; made in house; host or cells: E. coli BL21 (DE3) pLysS
T2 sequence (O14965 1-403): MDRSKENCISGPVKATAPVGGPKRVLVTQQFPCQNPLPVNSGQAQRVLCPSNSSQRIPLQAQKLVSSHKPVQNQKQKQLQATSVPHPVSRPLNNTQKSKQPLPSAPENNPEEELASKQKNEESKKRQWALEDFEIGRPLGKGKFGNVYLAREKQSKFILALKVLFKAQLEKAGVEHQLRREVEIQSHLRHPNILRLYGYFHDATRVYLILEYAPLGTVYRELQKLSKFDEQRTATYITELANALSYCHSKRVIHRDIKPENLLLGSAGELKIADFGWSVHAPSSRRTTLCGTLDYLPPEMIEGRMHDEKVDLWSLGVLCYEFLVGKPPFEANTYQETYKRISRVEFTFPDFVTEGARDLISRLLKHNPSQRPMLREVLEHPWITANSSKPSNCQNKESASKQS
Description: In vitro Aurora A kinase assay (γ33P-ATP incorporation into myelin basic protein). The format is biochemical. The method, then:
as §1
Aurora A kinase activity was assayed by measuring incorporation of γ^33P-ATP into myelin basic protein (Sigma). Purified recombinant protein (100 ng) was incubated at room temperature for 30 min in a total volume of 15 μl containing 50 mM HEPES pH 7.5, 10 mM MgCl2, 1 mM EGTA, 0.05% Brij-35, 0.5 mg/ml myelin basic protein, and 5 μM γ^33P-ATP (100–10,000 dpm/pmol). The reaction was stopped by spotting the reaction mixture onto squares of P81 phosphocellulose ion exchange paper (Whatmann), which were then immersed in 1.5% (v/v) phosphoric acid. After washing twice in 1% phosphoric acid followed by two washes in distilled water, the papers were air dried and radioactivity was counted by a scintillation counter and recorded by Quantasmart version 2.03.

The next experiment concerns ROCK 2. Put plainly: Kinase profiling screen (radioactive filter-binding assay). Format: biochemical, human. Particulars: 100 μM compound, 20 μM ATP. The method, then:
as §1

The next experiment deals with AMPK. The experiment is described as above. The format is biochemical, human. Particulars: 100 μM compound, 50 μM ATP. The method, then: as §1
In a further experiment the test system is CAMKK. The description is as above. To be noted: 100 μM compound, 20 μM ATP. Format: biochemical, human. The method, then:
as §1

Experiment [1] has as its target T3, Aurora A (inactive), unphosphorylated (PP1-treated) (Homo sapiens, UniProt O14965).
T3 construct: For enzyme and DSF assays, full-length human Aurora A and Aurora B and 1–43 TPX2 were produced; made in house; host or cells: E. coli
T3 sequence (O14965 1-403): T2 sequence (O14965 1-403)
Description: Lanthascreen Eu Kinase FRET binding assay. The method, then:
(§2) A Lanthascreen Eu Kinase FRET Binding Assay (Invitrogen) was employed to determine IC50 values for the interaction of Aurora A with CoA, dpCoA, ATP, and ADP. […] Recombinant Aurora A was incubated with Europium-conjugated anti-histidine tag antibody and an Alexa Fluor 647-labelled tracer, which binds to the ATP binding pocket of Aurora A. The close proximity of the anti-histidine (epitope-tag) antibody and the tracer results in a high degree of FRET (fluorescence resonance energy transfer) from the europium donor fluorophore to the Alexa Fluor 647 acceptor fluorophore. ATP-competitive inhibitors, such as CoA, displace the tracer from the active site, causing a loss of FRET signal. Assay set-up was performed as described by the manufacturer. Briefly, the time-resolved fluorescence resonance energy transfer assay (TR-FRET) was performed in black, low volume 384 well plates (Corning). Each well contained 5 nM kinase, 2 nM Eu-anti-His antibody and 10 nM kinase tracer 236 in kinase buffer A (50 mM Hepes pH 7.5, 10 mM MgCl2, 1 mM […], 0.01% (v/v) Brij-35), varying amounts of CoA, dpCoA, ATP, and ADP. The reaction mix was incubated for 1h at room temperature. The signal was measured at 665/620 nm emission ratio using BMG LABTECH plate reader (PHERAstar). All assays were performed using duplicates. The 11-point response curves were generated using GraphPad Prism software from the inhibition data generated.
Background: Time-resolved FRET reads energy transfer from a long-lived donor to a nearby acceptor.

Experiment [2] concerns the target T4, Aurora A (active), T288 phosphorylated (Homo sapiens, UniProt O14965).
T4 construct: For enzyme and DSF assays, full-length human Aurora A and Aurora B and 1–43 TPX2 were produced; made in house; host or cells: E. coli
T4 sequence (O14965 1-403): T2 sequence (O14965 1-403)
Put plainly: Lanthascreen Eu Kinase FRET binding assay. The method, then:
as §2

Where [3] appears, read: 5 μM competing ATP, read-out: Aurora A (active) IC50 (μM), activity assay.
Setting [4] is: T288 phosphorylated Aurora A, read-out: Aurora A (active) IC50 (μM), binding assay.

Chain of SmMLCK (Q15746 923-1914): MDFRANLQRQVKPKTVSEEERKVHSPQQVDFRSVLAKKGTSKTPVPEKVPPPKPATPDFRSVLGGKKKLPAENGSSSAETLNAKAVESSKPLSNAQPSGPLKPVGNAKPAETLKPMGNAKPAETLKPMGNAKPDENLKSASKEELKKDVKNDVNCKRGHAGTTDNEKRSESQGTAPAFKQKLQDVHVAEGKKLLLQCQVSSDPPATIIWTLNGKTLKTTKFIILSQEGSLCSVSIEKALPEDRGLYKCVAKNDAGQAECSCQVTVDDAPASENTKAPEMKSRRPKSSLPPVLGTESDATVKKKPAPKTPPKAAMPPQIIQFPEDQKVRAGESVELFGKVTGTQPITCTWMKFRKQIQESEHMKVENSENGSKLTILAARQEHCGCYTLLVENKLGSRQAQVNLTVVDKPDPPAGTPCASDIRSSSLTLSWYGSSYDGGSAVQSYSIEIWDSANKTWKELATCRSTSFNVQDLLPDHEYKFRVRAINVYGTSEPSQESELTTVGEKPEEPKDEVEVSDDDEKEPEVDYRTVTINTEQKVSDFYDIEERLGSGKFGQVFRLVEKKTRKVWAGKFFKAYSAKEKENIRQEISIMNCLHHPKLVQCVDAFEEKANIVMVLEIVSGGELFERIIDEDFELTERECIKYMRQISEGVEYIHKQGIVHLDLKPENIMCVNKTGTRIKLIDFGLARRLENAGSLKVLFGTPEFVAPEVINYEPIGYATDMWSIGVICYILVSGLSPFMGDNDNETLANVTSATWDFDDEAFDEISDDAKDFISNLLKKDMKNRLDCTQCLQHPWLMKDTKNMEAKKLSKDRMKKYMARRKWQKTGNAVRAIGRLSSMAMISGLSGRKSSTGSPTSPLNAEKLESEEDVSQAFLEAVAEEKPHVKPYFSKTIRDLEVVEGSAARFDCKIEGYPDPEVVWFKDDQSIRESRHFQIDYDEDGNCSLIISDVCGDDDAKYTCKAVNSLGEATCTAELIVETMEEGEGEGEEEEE

Usually IC50 stands for the concentration that inhibits the measured activity by half. Regarding `Nc1ncnc2c1ncn2C1OC(COP(=O)(O)OP(=O)(O)O)C(O)C1O` (centres unmarked) [ADP], the activity at 100 µM turned out to be 80.1% at CAMK1, 73% at SmMLCK and 42.4% at DYRK2. In addition, the IC50 is 54 µM at Aurora A (active) (setting [3]), 1.3 µM in experiment [1], 170 nM in experiment [2] (setting [4]) and around 177000 nM in experiment [2] (read-out: IC50 for the interaction of active Aurora A). Further, the “Kinase activity, % of activity in the absence of inhibitor” value (“Kinase activity, % … of inhibitor” for short) was 57.8% in the experiment on ROCK 2, 54.1% in the experiment on AMPK and 52.9% in the experiment on CAMKK.

Take `CC(C)(COP(=O)(O)OP(=O)(O)OC[C@H]1O[C@@H](n2cnc3c(N)ncnc32)[C@H](O)[C@@H]1OP(=O)(O)O)[C@@H](O)C(=O)NCCC(=O)NCCS` [CoA, Coenzyme A]: the activity at 100 µM was found to be 124% on CAMK1, 92.1% on SmMLCK and 102% at DYRK2. Besides, the IC50 is 47 µM on Aurora A (active) (5 μM ATP, 1 mM DTT, read-out: IC50, Aurora A kinase activity in the presence of DTT); around 5 µM at Aurora A (active) (5 μM ATP, absence of DTT, read-out: IC50, Aurora A kinase activity); 5 µM on Aurora A (active) (setting [3]); 0.28 µM in experiment [1]; 0.01 nM in [2] (setting [4]). For the same compound, on Aurora A (active) (100 μM CoA pre-incubation, DTT-sensitive), the “TPX2-induced kinase activation after pre-incubation of Aurora A with CoA” value is “attenuated”. Besides, at Aurora A (active) (presence of TPX2 (residues 1–43), serial dilutions of CoA), the “Inhibitory effect on Aurora A in the presence of TPX2 1–43 fragment” value is “completely abrogated the inhibitory effect”. The “Kinase activity, % … of inhibitor” value with ROCK 2 is on record as 94.3%; in the experiment on AMPK, 90.8%; in the experiment with CAMKK, 97.4%.

For `CC(C)(COP(=O)(O)OP(=O)(O)OCC1OC(n2cnc3c(N)ncnc32)C(O)C1O)C(O)C(=O)NCCC(=O)NCCS` (centres unmarked) [dpCoA, dephospho-CoA], the activity at 100 µM turned out to be 126% on CAMK1, 91.3% at SmMLCK and 77% on DYRK2. The IC50 on Aurora A (active) (setting [3]) is 17 µM; in [1], above 100 µM; in experiment [2] (setting [4]), 0.3 nM. Besides, the entries for the “Kinase activity, % … of inhibitor” value in the experiment with ROCK 2, in the experiment with AMPK and in the experiment on CAMKK were 96.4%, 75.9% and 71.4%, respectively.
